Where two headings read alike, the source gives them in different places.
Tested on: male Wistar rats injected with beta-amyloid peptide 25-35 into NBM
Details: for Improvement in learning and memory as compared to control rats: 1 mg/kg for 7 days; for Latency (retention latency to enter dark compartment, mean±SD): 1 mg/kg succinic acid water solution once a day for 7 days from day 16 after beta-amyloid, retention trial 24 h after acquisition, cut-off 180 s, n=8
Procedure: Beta-amyloid was administered bilaterally into NBM of male Wistar rats in dose of 2 μg per each side. On day 16th after the amyloid injection, rats received intranasally or intraperitoneally compositions comprising a water solution of 1 mg/kg of succinic acid for 7 days singly a day. Control rats received saline intranasally. On day next to the last day of the treatment, passive avoidance performance in rats was tested for two consecutive days. A two-compartment, step-through, passive avoidance apparatus consisting of illuminated (25×40×25 cm) and dark (25×40×25 cm) compartments attached to an electrified grid floor and separated by a guillotine door (8×8 cm) was used. In the acquisition trial, the rat was placed in the illuminated compartment in a position its tail directed to the closed door for 2 min to habituate to the apparatus. The guillotine door was opened and time to enter to dark compartment was recorded. When the rat entered to dark compartment completely (four foots in dark compartment), the guillotine door was closed and the rat was delivered an electrical shock of 0.8 mA for 3 sec through the grid floor. After the shock, the rat was immediately placed in home cage. In the retention trial, conducted 24 h after the acquisition trial, the rat was placed in the illuminated compartment and the retention latency to enter into the dark compartment was recorded until 180 s had elapsed. […] Data are presented as retention latency mean±SD (n=8).

O=C(O)CCC(=O)O [Succinic acid]
Improvement in learning and memory as compared to control rats (intranasally treated rats): significant improvement in learning and memory
Latency (retention latency to enter dark compartment, mean±SD) (intranasally): 87 ± 21 s
Improvement in learning and memory as compared to control rats (intraperitoneally treated rats): do not
Latency (retention latency to enter dark compartment, mean±SD) (intraperitoneally): 43 ± 19 s

Source: patent publication US20100160440A1, “INTRANASAL PHARMACEUTICAL COMPOSITIONS COMPRISING SUCCINIC ACID AND METHODS THEREOF” (priority 2007, published 2010)
